The record followed here is ChEMBL document CHEMBL1151778, “Synthesis of macrocyclic trypanosomal cysteine protease inhibitors” (Bioorg Med Chem Lett, 2008).

In one test the target is Rhodesain (Trypanosoma brucei rhodesiense, UniProt Q95PM0). Nature of the test: Inhibition of Trypanosoma brucei rhodesiense recombinant rhodesain by fluorescence technique.
Another test concerns the target Cruzipain (Trypanosoma cruzi, UniProt P25779). Nature of the test: Inhibition of Trypanosoma cruzi recombinant cruzain by fluorescence technique.

Bounds are passed on as bounds.

Sequence of Cruzipain (P25779 whole entry): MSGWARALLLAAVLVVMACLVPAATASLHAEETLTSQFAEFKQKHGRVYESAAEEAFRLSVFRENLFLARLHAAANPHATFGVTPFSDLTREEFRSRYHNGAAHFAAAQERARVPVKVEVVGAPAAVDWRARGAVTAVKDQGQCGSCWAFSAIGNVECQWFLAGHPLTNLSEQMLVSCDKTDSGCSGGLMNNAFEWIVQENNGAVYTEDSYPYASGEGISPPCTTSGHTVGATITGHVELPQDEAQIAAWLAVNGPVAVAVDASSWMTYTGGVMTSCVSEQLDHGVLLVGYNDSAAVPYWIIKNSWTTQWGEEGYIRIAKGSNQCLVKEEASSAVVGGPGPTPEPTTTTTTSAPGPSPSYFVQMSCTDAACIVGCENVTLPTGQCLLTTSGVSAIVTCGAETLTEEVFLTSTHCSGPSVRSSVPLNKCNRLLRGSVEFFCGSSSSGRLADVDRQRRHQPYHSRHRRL
Sequence of Rhodesain (Q95PM0 whole entry): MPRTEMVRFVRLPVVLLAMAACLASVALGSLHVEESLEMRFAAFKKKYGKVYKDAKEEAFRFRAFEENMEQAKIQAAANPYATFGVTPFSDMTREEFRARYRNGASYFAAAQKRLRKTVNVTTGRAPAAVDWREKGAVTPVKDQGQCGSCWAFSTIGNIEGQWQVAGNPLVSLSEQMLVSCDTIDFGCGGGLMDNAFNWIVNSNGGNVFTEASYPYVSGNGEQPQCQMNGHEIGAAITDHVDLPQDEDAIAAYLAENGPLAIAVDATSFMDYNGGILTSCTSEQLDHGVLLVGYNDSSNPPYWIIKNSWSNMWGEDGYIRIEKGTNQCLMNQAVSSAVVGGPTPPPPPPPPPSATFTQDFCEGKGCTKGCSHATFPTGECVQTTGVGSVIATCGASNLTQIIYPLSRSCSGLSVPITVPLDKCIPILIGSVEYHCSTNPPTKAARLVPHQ

For the compound `CC(C)C[C@@H]1N[C@@H](C(=O)Nc2ccccc2)CCCCC[C@@H](/C=C/S(=O)(=O)c2ccccc2)NC1=O`, the half-maximal inhibitory concentration (IC50) on Rhodesain was 6 µM; on Cruzipain it was 2 µM.
Regarding `CC(C)C[C@@H]1N[C@@H](C(=O)Nc2ccccc2)CCCC[C@@H](/C=C/S(=O)(=O)c2ccccc2)NC1=O`, the IC50 at Rhodesain was 10 µM; on Cruzipain it was greater than 10 µM.

The IC50 is the concentration that inhibits the measured activity by half.
